Laboratory results taken from BindingDB's records for patent US9682141 (Intellikine LLC, 2017).
pIC50: −log10 of the molar value.

Legend:
[1] = biological target: Phosphatidylinositol 4,5-bisphosphate 3-kinase catalytic subunit beta isoform (Homo sapiens, UniProt P42338); assay: PI 3-Kinase HTRF Assay; conditions: 25 °C
Description: (§1) Briefly, the assay is a time resolved FRET assay that indirectly measures PIP3 product formed by the activity of a PI3-K. The kinase reaction is performed in a microtitre plate (e.g., a 384 well microtitre plate). The total reaction volume is approximately 20 ul per well. In the first step, each well receives 2 ul of test compound in 20% dimethylsulphoxide resulting in a 2% DMSO final concentration. Next, approximately 14.5 ul of a kinase/PIP2 mixture (diluted in 1x reaction buffer) is added per well for a final concentration of 0.25-0.3 ug/ml kinase and 10 uM PIP2. The plate is sealed and incubated for 15 minutes at room temperature. To start the reaction, 3.5 ul of ATP (diluted in 1x reaction buffer) is added per well for a final concentration of 10 uM ATP. The plate is sealed and incubated for 1 hour at room temperature. The reaction is stopped by adding 5 ul of Stop Solution per well and then 5 ul of Detection Mix is added per well. The plate is sealed, incubated for 1 hour at room temperature, and then read on an appropriate plate reader.

[2] = biological target: Phosphatidylinositol 4,5-bisphosphate 3-kinase catalytic subunit alpha isoform (Homo sapiens, UniProt P42336); assay: PI 3-Kinase HTRF Assay; conditions: 25 °C
Phosphatidylinositol 4,5-bisphosphate 3-kinase catalytic subunit alpha isoform, sequence (P42336 whole entry, canonical isoform): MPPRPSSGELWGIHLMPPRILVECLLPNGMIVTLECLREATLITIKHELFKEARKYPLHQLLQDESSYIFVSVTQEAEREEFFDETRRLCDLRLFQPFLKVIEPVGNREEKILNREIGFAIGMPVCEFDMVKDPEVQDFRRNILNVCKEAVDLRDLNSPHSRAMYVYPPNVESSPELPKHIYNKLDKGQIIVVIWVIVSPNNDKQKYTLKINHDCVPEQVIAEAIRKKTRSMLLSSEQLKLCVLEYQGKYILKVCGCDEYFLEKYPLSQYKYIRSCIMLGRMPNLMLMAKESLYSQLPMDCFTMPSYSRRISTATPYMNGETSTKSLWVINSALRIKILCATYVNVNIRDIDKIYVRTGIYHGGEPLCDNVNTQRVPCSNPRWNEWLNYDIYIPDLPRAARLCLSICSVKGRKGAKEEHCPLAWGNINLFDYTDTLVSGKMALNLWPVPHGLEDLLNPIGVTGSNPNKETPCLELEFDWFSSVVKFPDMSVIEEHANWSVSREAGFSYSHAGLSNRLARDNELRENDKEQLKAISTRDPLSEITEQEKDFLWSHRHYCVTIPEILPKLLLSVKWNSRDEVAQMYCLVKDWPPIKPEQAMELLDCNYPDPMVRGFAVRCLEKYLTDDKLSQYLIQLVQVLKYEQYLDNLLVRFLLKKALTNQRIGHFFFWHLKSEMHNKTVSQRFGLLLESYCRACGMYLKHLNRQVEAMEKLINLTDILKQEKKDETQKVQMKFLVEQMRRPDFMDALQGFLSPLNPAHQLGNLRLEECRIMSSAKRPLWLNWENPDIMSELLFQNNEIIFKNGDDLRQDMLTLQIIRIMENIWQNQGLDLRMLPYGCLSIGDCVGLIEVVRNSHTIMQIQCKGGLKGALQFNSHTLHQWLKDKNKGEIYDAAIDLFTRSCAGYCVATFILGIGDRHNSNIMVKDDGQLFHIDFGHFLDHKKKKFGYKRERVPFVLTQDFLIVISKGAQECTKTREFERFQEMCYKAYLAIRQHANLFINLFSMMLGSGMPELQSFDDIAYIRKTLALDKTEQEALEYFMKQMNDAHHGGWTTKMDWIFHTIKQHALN
Description: as §1

Phosphatidylinositol 4,5-bisphosphate 3-kinase catalytic subunit beta isoform, sequence (P42338 whole entry, canonical isoform): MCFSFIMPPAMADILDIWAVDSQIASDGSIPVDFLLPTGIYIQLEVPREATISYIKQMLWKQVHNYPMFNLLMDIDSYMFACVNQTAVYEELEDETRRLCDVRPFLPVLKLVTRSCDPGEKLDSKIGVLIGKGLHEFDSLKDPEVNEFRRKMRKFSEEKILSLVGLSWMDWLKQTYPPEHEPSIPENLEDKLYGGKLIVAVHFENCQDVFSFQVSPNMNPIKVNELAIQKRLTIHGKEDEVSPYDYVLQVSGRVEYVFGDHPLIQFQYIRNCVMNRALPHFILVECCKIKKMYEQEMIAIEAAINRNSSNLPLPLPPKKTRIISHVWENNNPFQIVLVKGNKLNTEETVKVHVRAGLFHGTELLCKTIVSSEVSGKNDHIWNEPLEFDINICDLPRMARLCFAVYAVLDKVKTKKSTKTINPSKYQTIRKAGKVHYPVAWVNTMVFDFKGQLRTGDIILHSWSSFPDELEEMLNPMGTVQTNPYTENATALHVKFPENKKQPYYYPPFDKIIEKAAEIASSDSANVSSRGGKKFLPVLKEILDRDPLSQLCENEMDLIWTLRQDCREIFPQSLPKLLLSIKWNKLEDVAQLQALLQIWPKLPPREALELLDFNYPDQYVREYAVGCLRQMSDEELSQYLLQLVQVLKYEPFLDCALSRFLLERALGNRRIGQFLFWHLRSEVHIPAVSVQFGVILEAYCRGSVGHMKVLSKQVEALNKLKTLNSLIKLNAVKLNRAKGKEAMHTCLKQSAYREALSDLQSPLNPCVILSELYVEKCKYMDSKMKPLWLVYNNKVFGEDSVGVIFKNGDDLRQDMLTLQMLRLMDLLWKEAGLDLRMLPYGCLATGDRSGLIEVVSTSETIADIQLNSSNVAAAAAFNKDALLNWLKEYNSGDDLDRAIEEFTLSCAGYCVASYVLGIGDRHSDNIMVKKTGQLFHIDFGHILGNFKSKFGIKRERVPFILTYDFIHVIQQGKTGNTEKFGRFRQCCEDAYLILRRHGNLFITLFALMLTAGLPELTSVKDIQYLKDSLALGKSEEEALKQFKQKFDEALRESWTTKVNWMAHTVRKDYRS

Structure (SMILES)	pIC50 [1]	pIC50 [2]
Nc1nc2cc(-c3ccc4ncc(-c5ccncc5)n4c3)ccc2o1 [US9682141, 6]	> 5.00	–
Nc1nc2cc(-c3ccc4ncn(-c5ccccc5)c4c3)ccc2o1 [US9682141, 11]	> 5.00	> 7.00
